Source: patent publication US5807900A, “Method for identifying compounds having increased activity for the repair of skin photodamage” (priority 1995, dated 1998)
Read-outs that look alike come from different tables or passages of the source.

What was measured:
[1] = system: human RAR-α; assay: RAR-α transactivation assay (SeAP reporter, COS cells); assay type: cell-based; conditions: for Transactivation % max (α): relative to all-trans-retinoic acid at same concentration (1,000 nM or 10,000 nM)
Experimental: (§1) Retinoid Receptor Transactivation Assays
(§2) Transactivation assays were performed essentially as described in Apfel et al., supra. For the RAR transcription activation test system, the secreted alkaline phosphatase gene (SeAP) is used as reporter. To have a screening system specific for the transfected receptor, chimeric receptors are used. These contain an estrogen receptor DNA binding domain and therefore recognize the estrogen response element (ERE) which no endogenous RAR's in mammalian cells will recognize.
(§3) The transactivation assay system has been adapted to 96-well plates and most steps are done by a robot. Briefly, on day 1 confluent COS cells are subcultured at an equivalent density onto 96-well plates in DMEM+10% charcoal stripped serum. On day 2 DNA is prepared for transfection by mixing the following: 10 μg vit-TK-SeAP reporter plasmid, 2 μg RAR expression plasmid, 2 μg transfection control plasmid and 30 μl Transfectam (lipopolyamine transfection reagent). Cells are washed twice with serum-free medium and DNA/transfectam mix added. After 1 hour medium is removed and replaced with growth medium containing test retinoids. On day 4 or 5 the culture supernatant is removed, heated to 65° for 5 min to inactivate nonspecific phosphatases, and diluted 1:10 with water. 20 μl samples are added to 100 μl of phosphatase substrate in buffer. After 1 hour at 37° the luminescence is measured in a 96-well luminometer.
(§4) 100 μl of β-galactosidase substrate is added to the adherent cells. Plates are incubated for 1 hour at 37° and the supernatants transferred to separate plates for quantitation of β-galactosidase activity by luminescence measurement. Transactivation results are expressed as the ratio of SeAP/β-galactosidase activity for each well to correct for well-to-well variation in transfection efficiency.
(§5) Data are means of values obtained from two or more individual experiments, rounded off to two significant figures. […] The maximum transactivation activity is determined from the plot where increasing dosage provides little or no additional activity, i.e., where the plot begins to level off. For active retinoids the highest concentration tested is 1000 nM.

[2] = system: human RAR-γ; assay: RAR-γ transactivation assay (SeAP reporter, COS cells); assay type: cell-based; conditions: for Transactivation % max (γ): relative to all-trans-retinoic acid at same concentration (1,000 nM or 10,000 nM)
Experimental: as §1, §2, §3, §4, §5

[3] = target: human RAR-γ; assay: Binding assay for human RAR-γ (displacement of 3H-retinoic acid); conditions: 3H-retinoic acid displacement, mean of two or more experiments
Experimental: (§6) Binding Assay for Human RAR-α, RAR-β and RAR-γ
(§7) Binding assays were performed essentially as described in Apfel et al., supra. […] Extracts containing the receptors were used in a competitive binding assay which depends upon the ability of increasing concentrations of a retinoid to displace ^3 H-retinoic acid. In a typical assay, 0.2 to 0.4 picomoles of receptors were incubated in 0.2 ml of 50 mM Tris HCl, pH 7.4, 50 mM NaCl, 2 mM EDTA (binding buffer) containing 0.5% gelatin, 1% DMSO, 2-5 nM ^3 H-retinoic acid and various concentrations of unlabelled retinoids. After 3-5 hours at 22° C., 0.15 ml of chilled charcoal/dextran suspension (5% Norit A/0.5% dextran T-40 in binding buffer) were added for 15 min at 4° C. The tubes were centrifuged at 12,000 x g for 15 minutes and the supernates counted. Binding parameters were calculated from competition curves using the Ligand program.
(§8) Data are means of values obtained from two or more individual experiments, rounded off to two significant figures. […] When binding inhibition at 10,000 nM is less than 50%, >10,000 is indicated.

[4] = system: RAR-β; assay: RAR-β transactivation assay (SeAP reporter, COS cells); assay type: cell-based, human; conditions: for Transactivation % max (β): relative to all-trans-retinoic acid at same concentration (1,000 nM or 10,000 nM)
Experimental: as §1, §2, §3, §4, §5

[5] = target: T1, human RAR-α (Homo sapiens, UniProt P10276); assay: Binding assay for human RAR-α (displacement of 3H-retinoic acid); conditions: 3H-retinoic acid displacement, mean of two or more experiments
T1 sequence (P10276 201-462 limits assumed): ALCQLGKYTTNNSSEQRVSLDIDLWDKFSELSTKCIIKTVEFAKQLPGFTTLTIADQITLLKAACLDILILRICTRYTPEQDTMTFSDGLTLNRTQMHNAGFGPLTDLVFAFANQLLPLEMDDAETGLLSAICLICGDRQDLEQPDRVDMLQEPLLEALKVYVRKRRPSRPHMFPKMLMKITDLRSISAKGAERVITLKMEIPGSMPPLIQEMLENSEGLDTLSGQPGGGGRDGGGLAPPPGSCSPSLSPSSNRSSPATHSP

[6] = target: T2, human RAR-β (Homo sapiens, UniProt P10826); assay: Binding assay for human RAR-β (displacement of 3H-retinoic acid); conditions: 3H-retinoic acid displacement, mean of two or more experiments
T2 sequence (P10826 201-455 limits assumed): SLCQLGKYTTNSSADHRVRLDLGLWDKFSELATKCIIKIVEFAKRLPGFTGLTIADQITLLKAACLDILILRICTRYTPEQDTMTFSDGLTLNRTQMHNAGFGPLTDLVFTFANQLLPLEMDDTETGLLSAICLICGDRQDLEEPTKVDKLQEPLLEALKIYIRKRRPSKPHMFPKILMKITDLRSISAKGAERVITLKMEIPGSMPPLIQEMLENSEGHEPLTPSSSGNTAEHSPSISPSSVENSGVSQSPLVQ
Experimental: as §6, §7, §8

[7] = system: photodamaged skin; assay: Measurement of photodamage repair in the hairless mouse model; assay type: in vivo, Hairless mice (female, HRS/J strain); conditions: for Photodamage repair activity (scale 0 to 4): UVB-irradiated, topical in acetone three times per week, three doses
Excerpt: The ability of a composition of the invention to induce repair of photodamaged skin may be determined by any conventional means. One conventional method of determining the ability of a topical composition to repair photodamaged skin is the hairless mouse model described by Kligman et al., supra. […] In this model, repair is defined by the appearance of a zone of normalized dermis extending from the epidermis down to the layer of compressed elastin. The extent of repair is reflected by the width of this zone. […] The average width of the repair zone is then calculated by dividing the area by the length of the histological section that was measured.
The width of the repair zone is […] an activity value of 4.
Measurement of Photodamage Repair
Hairless mice (female, HRS/J strain, Jackson Labs, 5-7 weeks old at the start of the experiments) were housed in yellow light and irradiated three times per week with a bank of 8 Westinghouse Sunlamps (FS120) placed about 20 cm above the animals. Daily doses were 0.03 J/cm^2 for two weeks, 0.06 J/cm2 for two weeks and 0.08 J/cm2 thereafter. The radiation dose is controlled by an International Light Model IL844A Phototherapy Exposure Control and a model SEE240 detector.
To effect repair of the dermal damage, the UVB irradiation was discontinued and the animals were divided into groups of approximately eight and treated three times per week with various concentrations of the retinoids dissolved in acetone. Stock solutions are made up freshly every week in subdued light at concentrations such that the dose is delivered in 100 μl volume and applied topically with a plastic pipette to an area of about 10 cm^2 on the back of the animal. All dosing was done under yellow light. A control group treated with acetone alone was included.
Two-cm strips of dorsal skin were taken longitudinally down the center of the irradiated (and treated) area. Elastin fibers were stained with Luna's aldehyde fuchsin and collagen by Van Gieson. In this model, repair is defined by the appearance of a normalized dermis extending from the epidermis down to the layer of compressed elastin. The extent of repair is reflected by the width of this zone. […] Twenty-four fields each of which, at 100X magnification, represents a section of tissue 0.57 mm long, are examined and the area calculated. The results are reported as the average area per field in mm^2. Thus the average width of the repair zone can be obtained by dividing this average area by 0.57 mm. […] All microscopic fields are included in the calculations of average area (or width). Data are analyzed by Student's t-test.
Compounds are tested at three doses and an approximate ED50 calculated.

[8] = COS cells, 50% of the compound's own maximum, set to highest concentration tested (usually 1000 nM) if no maximum reached, read-out: Transactivation ED50 (α)
[9] = RAR-γ, COS cells, 50% of the compound's own maximum, set to highest concentration tested (usually 1000 nM) if no maximum reached, read-out: Transactivation ED50 (γ)
[10] = COS cells, 50% of the compound's own maximum, set to highest concentration tested (usually 1000 nM) if no maximum reached, read-out: Transactivation ED50 (β)

Row | SMILES | EC50 [1, 8] [µM] | Transactivation % max (α) [1] [%] | EC50 [2, 9] [µM] | Transactivation % max (γ) ([2]; RAR-γ) [%] | IC50 [3] [µM] | EC50 [4, 10] [µM] | Transactivation % max (β) [4] [%] | IC50 [5] [µM] | IC50 [6] [µM] | Photodamage repair activity (scale 0 to 4) [7] | EC50 ([1]; read-out: Transactivation ED50 (α), COS cells, 50% of the compound's own maximum, set to highest concentration tested (usually 1000 nM) if no maximum reached) [µM] | EC50 [2] [µM] | EC50 ([4]; read-out: Transactivation ED50 (β), COS cells, 50% of the compound's own maximum, set to highest concentration tested (usually 1000 nM) if no maximum reached) [µM] | ED50 for photodamage repair ([7]; μg of test compound applied to 10 cm^2 of skin area, standard retinoid) [µg]
1 | CCOC(=O)/C=C(C)/C=C/C=C(C)/C=C/c1c(C)cc(OC)c(C)c1C [E, etretinate, reference compound] | 1 | 14 | 1 | 20 | > 10 | 1 | 21 | > 10 | > 10 | 0 |  |  |  | 
2 | CCCCCCc1cc2c(cc1/C=C/C=C/C(C)=C/C(=O)O)C(C)(C)CCC2(C)C [N] | 1 | 63 | 0.064 | 123 | 0.17 | 1 | 60 | 1.5 | 2.9 | 4 |  |  |  | 
4 | CCCCCCc1cc2c(cc1/C=C/c1ccc(C(=O)O)cc1)C(C)(C)CCC2(C)C [M] | 1 | 24 | 0.015 | 36 | 0.21 | 0.088 | 62 | 2.2 | 2.3 | 4 |  |  |  | 
5 | CCCCCOc1cc2c(cc1/C=C/C=C/C(C)=C/C(=O)O)C(C)(C)CCC2(C)C [Q] | 1 | 45 | 0.029 | 96 | 2 | 0.15 | 81 | > 10 | 9.3 | 4 |  |  |  | 
6 | CCCCc1cc2c(cc1/C=C/c1ccc(C(=O)O)cc1)C(C)(C)CCC2(C)C [O] | 0.13 | 56 | 0.006 | 105 | 0.17 | 0.03 | 88 | 1.5 | 1.8 | 4 |  |  |  | 
7 | CC1(C)CCC(C)(C)c2cc(C(=O)Nc3ccc(C(=O)O)cc3)ccc21 [J] |  |  |  |  |  |  |  |  |  | 0 |  |  |  | 
8 | COc1cc(C)c(/C=C/C(C)=C/C=C/C(C)=C/C(=O)O)c(C)c1C [D, acitretin, reference compound] |  |  |  |  | […] |  |  |  |  | 0 |  |  |  | 
9 | C/C(=C\c1ccc(S(C)(=O)=O)cc1)c1ccc2c(c1)C(C)(C)CCC2(C)C [G] | 1 | 23 | 1 | 36 | > 10 | 1 | 17 | > 10 | > 10 | 3 (an ED50 of 1 μg or less (highly active)) |  |  |  | 
10 | CC1(C)CCC(C)(C)c2cc(NC(=O)c3ccc(C(=O)O)cc3)ccc21 [K] |  |  |  |  |  |  |  |  |  | 0 |  |  |  | 
12 | C/C(=C\c1ccc(C(=O)O)cc1)c1ccc2c(c1)C(C)(C)CCC2(C)C [F] |  |  |  |  |  |  |  |  |  | 1 (an ED50 of 100 μg) |  |  |  | 
